A short description of data set [1]: Solubility remark in Table 2 (compound insoluble, no IC50 given). Conditions: Table 2, cell in place of 4A/4C/5A IC50. It is filed as physicochemical.
Data set [2] deals with T1, KDM4C (Homo sapiens, UniProt Q9H3R0).
T1 construct: N-terminal GST-tagged KDM4C^2-372 was purchased from BPS Biosciences; GST (N); purchased BPS Biosciences
T1 sequence (Q9H3R0 2-372): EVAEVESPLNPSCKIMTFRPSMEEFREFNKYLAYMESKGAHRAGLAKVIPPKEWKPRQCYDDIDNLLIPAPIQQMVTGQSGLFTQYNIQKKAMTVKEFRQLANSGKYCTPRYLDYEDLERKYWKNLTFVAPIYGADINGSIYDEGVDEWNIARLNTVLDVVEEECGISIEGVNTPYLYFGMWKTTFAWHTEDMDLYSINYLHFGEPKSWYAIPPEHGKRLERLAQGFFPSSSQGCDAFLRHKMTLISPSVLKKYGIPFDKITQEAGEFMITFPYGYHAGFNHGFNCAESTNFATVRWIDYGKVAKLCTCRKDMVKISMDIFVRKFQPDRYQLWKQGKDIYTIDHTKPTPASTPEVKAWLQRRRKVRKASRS
The data set can be described thus: KDM4C Assay (SAMDI mass spectrometry demethylase assay). It is filed as biochemical. As to conditions: N-terminal GST-tagged KDM4C 2-372; class symbols; read-out: 4C IC50. On the procedure: (§1) N-terminal GST-tagged KDM4C^2-372 was purchased from BPS Biosciences. Peptides were synthesized by BioPeptide and all other reagents were purchased from Sigma-Aldrich at the highest level of purity possible. Assays were performed in a 50 μL volume in 384-well V-bottom polypropylene microplates (Greiner) at 25° C. Optimized 1× assay buffer was 50 mM HEPES (pH=8.0), 100 μM sodium ascorbate, 20 mM NaCl, 10 μM ammonium iron sulfate, 1 mM tris(2-carboxyethyl)phosphine (TCEP), 0.002% Tween-20, and 0.005% BSG. For compound screening, 35 μL of KDM4C^2-372 (final concentration, f.c.=5 nM) was added using a Multidrop Combi and preincubated with 1 μL of test compound (f.c.=10 μM) for 30 minutes and subsequently 15 μL of peptide with the following sequence NH2-ARTKQTAR(Kme3)STGGKAPRKQLA(K-Ahx-Biotin)-amide (f.c.=500 nM) and 2-oxoglutarate (f.c.=15 μM) was added by Multidrop Combi to begin the reaction. Reactions proceeded for 150 minutes and were stopped by the addition of 5 μL of formic acid (f.c.=0.5%) using a Multidrop Combi and then analyzed by SAMDI Tech Inc.
(§2) SAMDI Tech analyzed all reactions using self-assembled monoloayer desorption/ionization technology as previously described (Gerard-Levin Z A, Scholle M D, Eisenberg A H, et al.: High-throughput screening of small molecule libraries using SAMDI mass spectrometry. ACS Comb Sci 2011; 13:347-350). Briefly, a 2 μL sample of the stopped demethylase reactions were transferred to a SAMDI array coated with 384 biotin-neutravidin spots using a 384-channel pipet station. The SAMDI arrays were incubated for 1 h in a humidified chamber, followed by washing of the surface with deionized ultra-filtered water (DIUF) and drying under nitrogen. A matrix of 30 mg/ml 2′,4′,6′-Trihydroxyacetophenone monohydrate (THAP) in acetone was applied using a TPP Mosquito 1.2 μL tip by dispensing 50 nL on each of the 384 spots on the array. SAMDI-MS was run using acquisition method ReflectorPositiveUTX. The % conversion of substrate to product was calculated using the AUC of the substrate and product peptide peaks.
(§3) An IC50 value was determined by contacting various concentrations of a test compound with one of the KDM4A, KDM4C or KDMSC enzyme constructs and plotting a dose-response curve which associates the amount of inhibition of the enzyme relative to the concentration of the test compound. From the curve, the IC50 value (which represents the concentration of the test compound necessary to inhibit maximal enzymatic activity by 50%) was determined. Additionally, the slope of the linear range of the plotted curve, which indicates the speed with which the curve rises between the minimum and maximum, was calculated.

Data set [3] has as its target T2, KDM5A (Homo sapiens, UniProt P29375).
T2 construct: C-terminal FLAG-tagged KDM5A^1-1090 was purchased from BPS Biosciences; FLAG (C); purchased BPS Biosciences
T2 sequence (P29375 1-1090): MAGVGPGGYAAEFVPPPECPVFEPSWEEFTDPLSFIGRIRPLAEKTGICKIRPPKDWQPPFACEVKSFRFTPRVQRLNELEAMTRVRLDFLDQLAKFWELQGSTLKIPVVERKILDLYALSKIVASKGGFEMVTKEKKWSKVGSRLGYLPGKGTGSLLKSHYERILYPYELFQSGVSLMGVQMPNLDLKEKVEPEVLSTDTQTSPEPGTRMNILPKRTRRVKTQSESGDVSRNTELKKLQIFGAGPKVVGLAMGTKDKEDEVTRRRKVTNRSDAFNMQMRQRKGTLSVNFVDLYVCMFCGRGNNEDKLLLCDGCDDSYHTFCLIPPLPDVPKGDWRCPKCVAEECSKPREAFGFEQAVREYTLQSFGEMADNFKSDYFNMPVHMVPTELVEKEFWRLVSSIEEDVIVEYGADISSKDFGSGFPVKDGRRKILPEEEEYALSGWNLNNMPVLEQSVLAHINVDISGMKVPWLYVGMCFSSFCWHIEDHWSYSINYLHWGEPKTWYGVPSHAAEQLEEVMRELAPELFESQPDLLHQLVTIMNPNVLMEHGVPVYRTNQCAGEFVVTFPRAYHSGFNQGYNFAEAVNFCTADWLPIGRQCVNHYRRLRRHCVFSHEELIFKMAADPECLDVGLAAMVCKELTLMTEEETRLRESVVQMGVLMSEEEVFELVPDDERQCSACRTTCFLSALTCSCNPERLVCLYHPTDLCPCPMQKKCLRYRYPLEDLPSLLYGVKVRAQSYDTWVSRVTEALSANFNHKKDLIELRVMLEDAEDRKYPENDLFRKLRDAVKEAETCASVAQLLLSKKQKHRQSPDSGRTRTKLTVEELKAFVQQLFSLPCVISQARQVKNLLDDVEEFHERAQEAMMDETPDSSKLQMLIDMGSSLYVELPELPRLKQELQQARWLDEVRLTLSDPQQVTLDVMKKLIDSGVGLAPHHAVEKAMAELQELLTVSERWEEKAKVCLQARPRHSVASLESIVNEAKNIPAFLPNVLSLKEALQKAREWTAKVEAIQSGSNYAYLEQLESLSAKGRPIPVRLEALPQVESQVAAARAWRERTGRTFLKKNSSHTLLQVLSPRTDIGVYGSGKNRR
Description: KDM5A Assay (SAMDI mass spectrometry demethylase assay). It is filed as biochemical. Conditions: C-terminal FLAG-tagged KDM5A 1-1090; class symbols; read-out: 5A IC50. The protocol: as §1, with “C-terminal FLAG-tagged KDM5A^1-1090” for “N-terminal GST-tagged KDM4C^2-372”, “[…]” for “KDM4C^2-372”, “f.c.=20” for “f.c.=5”, “NH2-ART[Kme-3]QTARKSTGGKA[K-Ahx-Biot]-amide (f.c.=250” for “NH2-ARTKQTAR(Kme3)STGGKAPRKQLA(K-Ahx-Biotin)-amide (f.c.=500”
as §2, §3

Regarding `Cn1nc(-c2ccncc2)cc1Nc1cnccc1C(=O)O` [Compound 44, 3-((1-methyl-3-(pyridin-4-yl)-1H-pyrazol-5-yl)amino) isonicotinic acid], the “Solubility remark given instead of IC50 values” (“Solubility remark given instead” for short) in data set [1] is on record as “Insoluble”.
Take `Cc1ccccc1-n1ncc(Nc2cnccc2C(=O)O)c1C` [Compound 50, 3-((5-methyl-1-(o-tolyl)-1H-pyrazol-4-yl)amino)isonicotinic acid]: the “Solubility remark given instead” value in data set [1] is given as “Insoluble”.
As for `Cc1c(Nc2cnccc2C(=O)O)nn(C)c1-c1ccccc1` [Compound 54, 3-((1,4-dimethyl-5-phenyl-1H-pyrazol-3-yl)amino)isonicotinic acid], the “Solubility remark given instead” value in data set [1] is on record as “Insoluble”.
In general, IC50 refers to the concentration that inhibits the measured activity by half. As to `Cc1cnn(C2CCCN(CCN)C2)c1Nc1cnccc1C(=O)O` (centres unmarked) [Compound 140, 3-(1-(1-(2-aminoethyl)piperidin-3-yl)-4-methyl-1H-pyrazol-5-yl-amino)isonicotinic acid], the IC50 in data set [2] and in data set [3] was 10000 to 100000 nM in each case.
As to `Cc1cn(C2CCCNC2)nc1Nc1cnccc1C(=O)O` (centres unmarked) [Compound 141, 3-(4-methyl-1-(piperidin-3-yl)-1H-pyrazol-3-ylamino) isonicotinic acid], the figures for the IC50 in data set [2] and in data set [3] were 100 to 1000 nM and 1 to 100 nM, respectively.
`Cc1cn(-c2cccc3c2CCNC3)nc1Nc1cnccc1C(=O)O` [Compound 143, 3-(4-methyl-1-(1,2,3,4-tetrahydroisoquinolin-5-yl)-1H-pyrazol-3-ylamino)isonicotinic acid]: the IC50 in data set [2] fell in the range of 100 to 1000 nM; in data set [3], 1 to 100 nM.
For the compound `CN(C)CCc1cn(-c2ccccc2)nc1Nc1cnccc1C(=O)O` [Compound 144, 3-(4-(2-(dimethylamino)ethyl)-1-phenyl-1H-pyrazol-3-ylamino) isonicotinic acid], the 50% inhibitory concentration (IC50) in data set [2] and in data set [3] was 1000 to 10000 nM in each case.
